# Results reported in patent publication US20250099431A1, “GLP-1R MODULATING COMPOUNDS” (priority 2020, published 2025).
# Columns and labels:
# GLP-1R = GLP-1R (Homo sapiens (Human), UniProt P43220); test: GLP-1R activation: cAMP increase in CHO cells stably expressing GLP-1R; assay type: cell-based; conditions: cAMP increase, 10 point dose response, 30 minutes incubation at 37° C., read-out: EC50
# In short: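 CHO cells stably expressing GLP-1R were incubated 1 h at 37 °C in medium with 1% BSA, then exposed to compound in a 10-point dose response for 30 min at 37 °C. cAMP rise was detected by HTRF (Gs Dynamic kit). EC50 came from a sigmoidal fit of response against log agonist concentration.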
# [1] = Microsomal stability (liver microsomal assay, mixed cofactors); predicted hepatic clearance; assay type: in vitro ADME; conditions: liver microsomes 1.0 mg protein/mL (+UDPGA +NADPH), 1 μM analyte, 37° C.; scaled with human liver weight and hepatic blood flow 1.3 L/hr/kg
# In short: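 Compound at 1 μM with human or rat pooled liver microsomes, alamethicin-treated, pH 7.4 phosphate, NADPH-regenerating plus UDPGA cofactors, 37° C, sampled 0–70 min. Parent/internal standard ratio by RapidFire QToF MS; half-life from initial log-linear decay, scaled to intrinsic and predicted hepatic clearance and hepatic extraction.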
# GLP-1R, sequence (P43220 24-463): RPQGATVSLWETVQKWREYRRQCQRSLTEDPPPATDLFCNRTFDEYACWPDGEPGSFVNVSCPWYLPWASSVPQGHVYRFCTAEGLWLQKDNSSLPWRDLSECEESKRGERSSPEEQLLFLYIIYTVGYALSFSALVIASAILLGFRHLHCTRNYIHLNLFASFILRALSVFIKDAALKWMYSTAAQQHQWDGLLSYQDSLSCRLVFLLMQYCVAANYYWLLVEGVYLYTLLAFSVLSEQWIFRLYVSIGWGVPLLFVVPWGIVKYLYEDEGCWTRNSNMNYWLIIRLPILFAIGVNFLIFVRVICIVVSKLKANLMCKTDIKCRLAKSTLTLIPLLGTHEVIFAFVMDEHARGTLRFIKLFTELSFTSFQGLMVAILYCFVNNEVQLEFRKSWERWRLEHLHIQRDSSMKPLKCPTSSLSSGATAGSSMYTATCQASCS
smiles,measurement,setting,value
"CC1(c2ccc(Cl)cc2F)Oc2cccc(-c3ccc(Cc4nc5ccc(C(=O)O)cc5n4C[C@@H]4CCO4)cn3)c2O1 (stereo partly drawn) [Example 77, 2-((6-(2-(4-chloro-2-fluorophenyl)-2-methylbenzo[d][1, 3]dioxol-4-yl)pyridin-3-yl)methyl)-1-(((S)-oxetan-2-yl)methyl)-1H-benzo[d]imidazole-6-carboxylic acid]",EC50,GLP-1R,72 nM
same,Predicted Hepatic Clearance (Pred. Cl.),[1],4.33 mL/min/kg
"COCCn1c(Cc2ccc(-c3cccc4c3OC(c3ccc(Cl)cn3)C4)cc2F)nc2ccc(C(=O)O)cc21 (stereo not drawn) [Example 78, 2-(4-(2-(5-chloropyridin-2-yl)-2,3-dihydrobenzofuran-7-yl)-2-fluorobenzyl)-1-(2-methoxyethyl)-1H-benzo[d]imidazole-6-carboxylic acid]",EC50,GLP-1R,1780 nM
same,Predicted Hepatic Clearance (Pred. Cl.),[1],7.17 mL/min/kg
"COCCn1c(Cc2ccc(-c3cccc4c3OC(c3ccc(Cl)cc3F)C4)cc2F)nc2ccc(C(=O)O)cc21 (stereo not drawn) [Example 79, 2-(4-(2-(4-chloro-2-fluorophenyl)-2,3-dihydrobenzofuran-7-yl)-2-fluorobenzyl)-1-(2-methoxyethyl)-1H-benzo[d]imidazole-6-carboxylic acid]",EC50,GLP-1R,738 nM
same,Predicted Hepatic Clearance (Pred. Cl.),[1],2.33 mL/min/kg
"COCCn1c(Cc2ccc(-c3cccc4c3OC(C)(c3ccc(Cl)cc3F)O4)cc2F)nc2ccc(C(=O)O)cc21 (stereo not drawn) [Example 80, 2-(4-(2-(4-chloro-2-fluorophenyl)-2-methylbenzo[d][1, 3]dioxol-4-yl)-2-fluorobenzyl)-1-(2-methoxyethyl)-1H-benzo[d]imidazole-6-carboxylic acid]",EC50,GLP-1R,11 nM
same,Predicted Hepatic Clearance (Pred. Cl.),[1],4 mL/min/kg
"COCCn1c(Cc2cc(F)c(-c3cccc4c3OC(C)(c3ccc(C#N)cc3F)O4)cc2F)nc2ccc(C(=O)O)cc21 (stereo not drawn) [Example 81, 2-(4-(2-(4-cyano-2-fluorophenyl)-2-methylbenzo[d][1, 3]dioxol-4-yl)-2,5-difluorobenzyl)-1-(2-methoxyethyl)-1H-benzo[d]imidazole-6-carboxylic acid]",EC50,GLP-1R,26 nM
same,Predicted Hepatic Clearance (Pred. Cl.),[1],8.67 mL/min/kg
"CC1(c2ccc(Cl)cc2F)Oc2cccc(-c3cc(F)c(Cc4nc5ccc(C(=O)O)cc5n4CCOC(F)F)c(F)c3)c2O1 (stereo not drawn) [Example 83, 2-(4-(2-(4-chloro-2-fluorophenyl)-2-methylbenzo[d][1, 3]dioxol-4-yl)-2,6-difluorobenzyl)-1-(2-(difluoromethoxy)ethyl)-1H-benzo[d]imidazole-6-carboxylic acid]",EC50,GLP-1R,13 nM
same,Predicted Hepatic Clearance (Pred. Cl.),[1],3.3 mL/min/kg
"COCCn1c(Cc2cc(F)c(-c3cccc4c3OC(C)(c3ccc(Cl)cc3F)O4)cc2F)nc2ccc(-c3nn[nH]n3)cc21 (stereo not drawn) [Example 84, 2-(4-(2-(4-chloro-2-fluorophenyl)-2-methylbenzo[d][1, 3]dioxol-4-yl)-2,5-difluorobenzyl)-1-(2-methoxyethyl)-6-(2H-tetrazol-5-yl)-1H-benzo[d]imidazole]",EC50,GLP-1R,49 nM
same,Predicted Hepatic Clearance (Pred. Cl.),[1],2.83 mL/min/kg
"COCCn1c(Cc2ccc(-c3cccc4c3OC(C)(c3ccc(Cl)cc3F)O4)nc2OC)nc2ccc(C(=O)O)cc21 (stereo not drawn) [Example 85, 2-((6-(2-(4-chloro-2-fluorophenyl)-2-methylbenzo[d][1, 3]dioxol-4-yl)-2-methoxypyridin-3-yl)methyl)-1-(2-methoxyethyl)-1H-benzo[d]imidazole-6-carboxylic acid]",EC50,GLP-1R,168 nM
same,Predicted Hepatic Clearance (Pred. Cl.),[1],3 mL/min/kg
"COCCn1c(Cc2ccc(-c3cccc4c3OC(C)(c3ccc(Cl)cc3F)O4)[nH]c2=O)nc2ccc(C(=O)O)cc21 (stereo not drawn) [Example 86, 2-((6-(2-(4-chloro-2-fluorophenyl)-2-methylbenzo[d][1, 3]dioxol-4-yl)-2-oxo-1,2-dihydropyridin-3-yl)methyl)-1-(2-methoxyethyl)-1H-benzo[d]imidazole-6-carboxylic acid]",EC50,GLP-1R,13 nM
same,Predicted Hepatic Clearance (Pred. Cl.),[1],2 mL/min/kg
"COCCn1c(Cc2ccc(-c3cccc4c3OC(C)(c3ccc(Cl)cc3F)O4)n(C)c2=O)nc2ccc(C(=O)O)cc21 (stereo not drawn) [Example 87, 2-((6-(2-(4-chloro-2-fluorophenyl)-2-methylbenzo[d][1, 3]dioxol-4-yl)-1-methyl-2-oxo-1,2-dihydropyridin-3-yl)methyl)-1-(2-methoxyethyl)-1H-benzo[d]imidazole-6-carboxylic acid]",EC50,GLP-1R,1150 nM
same,Predicted Hepatic Clearance (Pred. Cl.),[1],9 mL/min/kg
"COCCn1c(Cc2c(F)cc(-c3cccc4c3OC(C)(c3ccc(C#N)cc3F)O4)c(F)c2F)nc2ccc(C(=O)O)cc21 (stereo not drawn) [Example 88, 2-(4-(2-(4-cyano-2-fluorophenyl)-2-methylbenzo[d][1, 3]dioxol-4-yl)-2,3,6-trifluorobenzyl)-1-(2-methoxyethyl)-1H-benzo[d]imidazole-6-carboxylic acid]",EC50,GLP-1R,12 nM
same,Predicted Hepatic Clearance (Pred. Cl.),[1],8 mL/min/kg
"COCCn1c(Cc2c(F)cc(-c3cccc4c3OC(C)(c3ccc(C#N)cc3F)O4)cc2F)nc2ccc(C(=O)O)cc21 (stereo not drawn) [Example 89, 2-(4-(2-(4-cyano-2-fluorophenyl)-2-methylbenzo[d][1, 3]dioxol-4-yl)-2,6-difluorobenzyl)-1-(2-methoxyethyl)-1H-benzo[d]imidazole-6-carboxylic acid]",EC50,GLP-1R,15 nM
same,Predicted Hepatic Clearance (Pred. Cl.),[1],6.17 mL/min/kg
"CC1(c2ccc(C#N)cc2F)Oc2cccc(-c3cc(F)c(Cc4nc5ccc(C(=O)O)cc5n4C[C@@H]4CCO4)c(F)c3F)c2O1 (stereo partly drawn) [Example 90, 2-(4-(2-(4-cyano-2-fluorophenyl)-2-methylbenzo[d][1, 3]dioxol-4-yl)-2,3,6-trifluorobenzyl)-1-(((S)-oxetan-2-yl)methyl)-1H-benzo[d]imidazole-6-carboxylic acid]",EC50,GLP-1R,0.23 nM
same,Predicted Hepatic Clearance (Pred. Cl.),[1],4.67 mL/min/kg
"CC1(c2ccc(C#N)cc2F)Oc2cccc(-c3cc(F)c(Cc4nc5ccc(C(=O)O)cc5n4C[C@@H]4CCO4)c(F)c3)c2O1 (stereo partly drawn) [Example 91, 2-(4-(2-(4-cyano-2-fluorophenyl)-2-methylbenzo[d][1, 3]dioxol-4-yl)-2,6-difluorobenzyl)-1-(((S)-oxetan-2-yl)methyl)-1H-benzo[d]imidazole-6-carboxylic acid]",EC50,GLP-1R,0.69 nM
same,Predicted Hepatic Clearance (Pred. Cl.),[1],3.83 mL/min/kg
"COCCn1c(Cc2c(F)cc(-c3c(F)ccc4c3OC(C)(c3ccc(Cl)cn3)O4)cc2F)nc2ccc(C(=O)O)cc21 (stereo not drawn) [Example 100, 2-(4-(2-(5-chloropyridin-2-yl)-5-fluoro-2-methylbenzo[d][1, 3]dioxol-4-yl)-2,6-difluorobenzyl)-1-(2-methoxyethyl)-1H-benzo[d]imidazole-6-carboxylic acid]",EC50,GLP-1R,14 nM
same,Predicted Hepatic Clearance (Pred. Cl.),[1],10.3 mL/min/kg
"COCCn1c(Cc2cc(F)c(-c3c(F)ccc4c3OC(C)(c3ccc(Cl)cn3)O4)cc2F)nc2ccc(C(=O)O)cc21 (stereo not drawn) [Example 101, 2-(4-(2-(5-chloropyridin-2-yl)-5-fluoro-2-methylbenzo[d][1, 3]dioxol-4-yl)-2,5-difluorobenzyl)-1-(2-methoxyethyl)-1H-benzo[d]imidazole-6-carboxylic acid]",EC50,GLP-1R,160 nM
same,Predicted Hepatic Clearance (Pred. Cl.),[1],11.8 mL/min/kg
"COCCn1c(Cc2c(F)cc(-c3cccc4c3O[C@@](C)(c3ccc(Cl)cc3F)O4)cc2F)nc2ccc(C(=O)O)cc21 [Example 102, 2-(4-(2-(4-chloro-2-fluorophenyl)-2-methylbenzo[d][1, 3]dioxol-4-yl)-2,6-difluorobenzyl)-1-(2-methoxyethyl)-1H-benzo[d]imidazole-6-carboxylic acid]",EC50,GLP-1R,65 nM
same,Predicted Hepatic Clearance (Pred. Cl.),[1],3.17 mL/min/kg
"COCCn1c(Cc2c(F)cc(-c3cccc4c3O[C@](C)(c3ccc(Cl)cc3F)O4)cc2F)nc2ccc(C(=O)O)cc21 [Example 103, 2-(4-(2-(4-chloro-2-fluorophenyl)-2-methylbenzo[d][1, 3]dioxol-4-yl)-2,6-difluorobenzyl)-1-(2-methoxyethyl)-1H-benzo[d]imidazole-6-carboxylic acid]",EC50,GLP-1R,8.2 nM
same,Predicted Hepatic Clearance (Pred. Cl.),[1],4.17 mL/min/kg
"CC1(c2ccc(Cl)cc2F)Oc2cccc(-c3ccc(Cc4nc5ccc(C(=O)O)cc5n4Cc4ccon4)c(F)c3)c2O1 (stereo not drawn) [Example 107, 2-(4-(2-(4-chloro-2-fluorophenyl)-2-methylbenzo[d][1, 3]dioxol-4-yl)-2-fluorobenzyl)-1-(isoxazol-3-ylmethyl)-3a,7a-dihydro-1H-benzo[d]imidazole-6-carboxylic acid]",EC50,GLP-1R,1.9 nM
same,Predicted Hepatic Clearance (Pred. Cl.),[1],4.33 mL/min/kg
"CC(=O)N1CC[C@@H]1Cn1c(Cc2ccc(-c3cccc4c3OC(C)(c3ccc(Cl)cc3F)O4)cc2F)nc2ccc(C(=O)O)cc21 (stereo partly drawn) [Example 108, 3-[[(2R)-1-acetylazetidin-2-yl]methyl]-2-[[4-[2-(4-chloro-2-fluoro-phenyl)-2-methyl-1,3-benzodioxol-4-yl]-2-fluoro-phenyl]methyl] benzimidazole-5-carboxylic acid]",EC50,GLP-1R,4.3 nM
same,Predicted Hepatic Clearance (Pred. Cl.),[1],2 mL/min/kg
"CC1(c2ccc(Cl)cc2F)Oc2cccc(-c3ccc(Cc4nc5ccc(C(=O)O)cc5n4CC4(n5ccnn5)CC4)c(F)c3)c2O1 (stereo not drawn) [Example 109, 1-((1-(1H-1,2,3-triazol-1-yl)cyclopropyl)methyl)-2-(4-(2-(4-chloro-2-fluorophenyl)-2-methylbenzo[d][1, 3]dioxol-4-yl)-2-fluorobenzyl)-1H-benzo[d]imidazole-6-carboxylic acid]",EC50,GLP-1R,9.1 nM
same,Predicted Hepatic Clearance (Pred. Cl.),[1],2.5 mL/min/kg
